Experimental data reported in EP1326493B1, “AGROCHEMICAL COMPOSITION CONTAINING ACTIVITY-ENHANCING ADJUVANTS” (Syngenta Limited, priority 2000, dated 2002).
≈ marks a conversion by molar mass, not a printed value.

Experiments:
[1] = system: Chenopodium album (CHEAL); assay: Field efficacy test of potassium glyphosate with adjuvants; type: in vivo; settings: potassium glyphosate + 0.2% adjuvant, mean across 100, 200, 400 and 600 g glyphosate acid/ha, 33 days after application
Excerpt: (§1) Potassium glyphosate, in combination with the adjuvants specified below in Table 3, was applied to Lolium perenne (LOLPE), Avena fatua (AVEFA) and Chenopodium album (CHEAL) drilled as rows in the field, at a spray application volume of […]. Application rates were 100, 200, 400 and 600 g glyphosate acid/ha and each treatment was replicated 3 times. Data (mean of the three replicates and across all rates) is presented for a visual assessment of % control carried out 33 days after application, where 0 = unaffected and 100% = complete kill Table 3.

Lolium perenne (LOLPE) = assay: as above; type: in vivo; settings: potassium glyphosate + 0.2% adjuvant, mean across 100, 200, 400 and 600 g glyphosate acid/ha, 33 days after application
Excerpt: as §1

Avena fatua (AVEFA) = assay: as above; type: in vivo; settings: potassium glyphosate + 0.2% adjuvant, mean across 100, 200, 400 and 600 g glyphosate acid/ha, 33 days after application
Excerpt: as §1

[2] = system: Echinochloa crus-galli (ECHCG); assay: Glass-house comparative efficacy test of potassium glyphosate with adjuvants; type: in vivo; settings: potassium glyphosate 240 g acid equivalent/ha, 21 days after treatment
Method: (§2) Potassium glyphosate was applied at 240 g glyphosate acid equivalent/ha to Chenopodium album (CHEAL), Echinochloa crus-galli (ECHCG) and Sorgham halepense (SORHA) plants grown in the glass-house. All treatments were made up in deionised water and applied using a tracksprayer with a 11002 nozzle at a spray application volume of […]. All treatments were replicated 4 times. After spraying the plants were laid out in a glass-house and maintained at a temperature of 24°C by day and 16°C by night. The Agrimul PG2067 and Synperonic PEL62 adjuvants were used in a proportion 0.2% w/v. The adjuvant 2-ethylhexyl amine 8EO was used at both 0.2%w/v and 0.3%w/v. The adjuvant Sodium dodecyl sulphate was used in a proportion of 0.3%w/v. When applied as binary blends all adjuvants were used in a proportion of 0.1%w/v except Sodium dodecyl sulphate which was applied at 0.2%w/v. A visual assessment of % control, where 0=unaffected and 100=complete kill, was carried out 21 days after treatment.

[3] = system: Chenopodium album (CHEAL); assay: as above; type: in vivo; settings: potassium glyphosate 240 g acid equivalent/ha, 21 days after treatment
Method: as §2

[4] = system: Sorgham halepense (SORHA); assay: as above; type: in vivo; settings: potassium glyphosate 240 g acid equivalent/ha, 21 days after treatment
Method: as §2

[5] = Dynamic surface tension, maximum bubble pressure method (Lauda MPT-2); type: physicochemical
Method: Dynamic surface tension can be measured using the maximum bubble pressure method. Various commercial instruments are available for measuring dynamic surface tension by the maximum bubble pressure method, for example the Lauda MPT-2 maximum bubble pressure instrument. The dynamic surface tension at 40msecs is determined from the maximum pressure in a bubble blown from a capillary inserted into a surfactant solution, for a bubble surface lifetime of 40msecs.
The dynamic surface tension measurements were carried out with a Lauda MPT-2 maximum bubble pressure tensiometer. The dynamic surface tension at 40 msecs was determined from the maximum pressure in a bubble blown from a capillary inserted into a surfactant solution, for a bubble surface lifetime of 40 msecs. The dynamic surface tensions were determined for solutions containing 0.1%, 0.2% or 0.5% by weight of the second adjuvant in deionised water at 20°C. For comparison, the dynamic surface tension of a 0.5% by weight solution of 2-ethylhexyl amine 8EO adjusted to pH4 with dilute hydrochloric acid (to protonate the amine) was also determined at 20°C.

Daphnia magna = Daphnia magna immobilisation ecotoxicity test; type: in vivo
Method: The following ecotoxicity results were obtained for various alkyl amine alkoxylates using the following test method. First instar Daphnia magna (less than 24 hrs old), obtained from cultures were exposed to a range of concentrations of the test amine ethoxylates in hard blended water (160-180 mg CaCO3 /litre). 10 Daphnia magna were added to each vessel which were then placed at ∼20 degrees C on a 16/8 light/dark day. Organisms were assessed at 24 and 48 hours, the effect observed being immobilisation after gentle agitation. The EC50 values were calculated using a statistical package, the 95% confidence limits are quoted in brackets.
The amine ethoxylates were tested in the presence of potassium glyphosate in order to protonate the amine. […] The remaining adjuvants were tested in the absence of potassium glyphosate. It can be seen that the ecotoxicity of the alkyl amine alkoxylates 3 to 6 falling within the definition of the present invention was very much lower that that for the nearest previously known compounds 1 to 2. It will be appreciated that the higher the EC50 value, the lower the toxicity.

Compound: 2-ethylhexyl amine 8EO [Number 3]
- visual assessment of % control CHEAL [1]: 74%
- visual assessment of % control LOLPE (Lolium perenne (LOLPE)): 47%
- visual assessment of % control AVEFA (Avena fatua (AVEFA)): 68%
- visual assessment of % control ECHCG ([2]; single adjuvant 0.2%): 63%
- visual assessment of % control ECHCG ([2]; single adjuvant 0.3%): 64%
- visual assessment of % control CHEAL ([3]; single adjuvant 0.2%): 59%
- visual assessment of % control SORHA ([4]; single adjuvant 0.2%): 74%
- visual assessment of % control SORHA ([4]; single adjuvant 0.3%): 75%
- Dynamic Surface Tension at 40 msecs ([5]; 0.5% by weight solution adjusted to pH4 with dilute hydrochloric acid, 20°C): 64 mNm^-1

Compound: CCCCCCCCCCCCOS(=O)(=O)[O-].[Na+] [Number 9, Sodium dodecyl sulphate, reference compound]
- visual assessment of % control ECHCG ([2]; single adjuvant 0.3%): 78%
- visual assessment of % control SORHA ([4]; single adjuvant 0.3%): 76%
- Dynamic Surface Tension at 40 msecs ([5]; 0.2% by weight in deionised water at 20°C): 53 mNm^-1
- Dynamic Surface Tension at 40 msecs ([5]; 0.5% by weight in deionised water at 20°C): 39 mNm^-1

Compound: CCCCCCCCCCCCOS(=O)(=O)O [Number 9]
- EC50 (Daphnia magna; Daphnia magna, 48 hours, immobilisation, tested in the absence of potassium glyphosate, 95% confidence limits in brackets, read-out: Daphnia toxicity EC50): 16 µg/mL (≈ 60.1 µM)

Compound: O=C(O)CNCP(=O)([O-])O.[K+] [Potassium glyphosate, reference compound]
- contribution to the daphnia toxicity (Daphnia magna; potassium glyphosate itself): does not make a significant contribution
- visual assessment of % control ECHCG ([2]; no adjuvant): 48%
- visual assessment of % control CHEAL ([3]; no adjuvant): 3%
- visual assessment of % control SORHA ([4]; no adjuvant): 21%
